Results taken from ChEMBL document CHEMBL3797188, “Piperidine derivatives as nonprostanoid IP receptor agonists 2” (Bioorg Med Chem Lett, 2016).

Legend:
[1] = Antiplatelet activity in human platelet rich plasma assessed as inhibition of ADP-induced platelet aggregation; type: functional, cell-free
[2] = Cmax in fasted dog at 0.5 mg/kg, po; type: ADME, organism-based, Canis lupus familiaris; design: dose 0.5 mg/kg, route oral; details: in vivo
[3] = Oral bioavailability in fasted dog at 0.5 mg/kg; type: ADME, organism-based, Canis lupus familiaris; details: in vivo
Prostacyclin receptor = Prostacyclin receptor (Homo sapiens, UniProt P43119); test: Binding affinity to human IP receptor
Sequence of Prostacyclin receptor (P43119 whole entry): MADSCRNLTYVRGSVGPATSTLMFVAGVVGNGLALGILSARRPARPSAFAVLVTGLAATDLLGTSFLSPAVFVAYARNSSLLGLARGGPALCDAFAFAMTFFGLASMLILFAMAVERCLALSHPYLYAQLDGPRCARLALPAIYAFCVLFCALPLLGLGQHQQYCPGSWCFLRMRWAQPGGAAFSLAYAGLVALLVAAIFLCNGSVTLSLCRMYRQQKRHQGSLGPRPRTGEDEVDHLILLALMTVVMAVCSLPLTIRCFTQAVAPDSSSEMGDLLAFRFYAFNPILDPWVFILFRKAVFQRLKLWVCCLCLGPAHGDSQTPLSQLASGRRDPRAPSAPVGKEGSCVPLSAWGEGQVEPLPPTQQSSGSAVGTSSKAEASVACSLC

[4] = target: Prostaglandin E2 receptor EP2 subtype (Homo sapiens, UniProt P43116); test: Binding affinity to human EP2 receptor
Sequence of Prostaglandin E2 receptor EP2 subtype (P43116 whole entry): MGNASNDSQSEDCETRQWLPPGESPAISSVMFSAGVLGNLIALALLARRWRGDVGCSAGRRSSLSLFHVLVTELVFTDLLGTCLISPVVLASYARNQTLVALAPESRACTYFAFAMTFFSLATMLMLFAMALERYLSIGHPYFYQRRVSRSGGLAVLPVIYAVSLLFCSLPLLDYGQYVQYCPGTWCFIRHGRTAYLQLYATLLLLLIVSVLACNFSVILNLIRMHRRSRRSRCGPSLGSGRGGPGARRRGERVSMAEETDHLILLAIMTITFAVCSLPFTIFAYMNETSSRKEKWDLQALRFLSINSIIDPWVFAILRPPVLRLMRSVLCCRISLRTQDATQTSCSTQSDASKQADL

[5] = target: T1, Prostaglandin E2 receptor EP3 subtype (Homo sapiens, UniProt P43115); test: Binding affinity to human EP3 receptor
T1 sequence (P43115 whole entry): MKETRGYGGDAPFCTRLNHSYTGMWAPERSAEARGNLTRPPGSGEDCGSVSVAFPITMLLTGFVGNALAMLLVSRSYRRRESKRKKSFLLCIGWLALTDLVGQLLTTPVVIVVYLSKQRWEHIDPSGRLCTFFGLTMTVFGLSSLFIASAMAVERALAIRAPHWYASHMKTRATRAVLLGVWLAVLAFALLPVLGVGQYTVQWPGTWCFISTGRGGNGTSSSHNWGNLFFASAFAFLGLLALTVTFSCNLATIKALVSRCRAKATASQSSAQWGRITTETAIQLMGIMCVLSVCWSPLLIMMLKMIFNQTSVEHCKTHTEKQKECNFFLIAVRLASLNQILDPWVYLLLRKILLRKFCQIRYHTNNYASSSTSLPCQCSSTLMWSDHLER

[6] = target: Prostaglandin E2 receptor EP4 subtype (Homo sapiens, UniProt P35408); test: Binding affinity to human EP4 receptor
Sequence of Prostaglandin E2 receptor EP4 subtype (P35408 whole entry): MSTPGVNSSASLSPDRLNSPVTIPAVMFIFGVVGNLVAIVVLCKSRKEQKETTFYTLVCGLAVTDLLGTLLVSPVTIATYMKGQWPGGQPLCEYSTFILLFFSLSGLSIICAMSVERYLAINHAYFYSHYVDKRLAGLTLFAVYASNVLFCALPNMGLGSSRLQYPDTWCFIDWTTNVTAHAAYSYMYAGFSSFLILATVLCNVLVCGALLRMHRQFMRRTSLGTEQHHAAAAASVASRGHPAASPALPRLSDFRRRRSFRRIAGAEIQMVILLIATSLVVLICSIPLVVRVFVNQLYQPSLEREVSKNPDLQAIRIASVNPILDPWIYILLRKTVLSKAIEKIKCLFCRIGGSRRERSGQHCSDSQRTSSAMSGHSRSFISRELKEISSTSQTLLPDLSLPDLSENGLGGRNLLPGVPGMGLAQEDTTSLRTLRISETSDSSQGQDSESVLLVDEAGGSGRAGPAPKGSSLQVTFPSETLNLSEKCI

[7] = target: Prostaglandin F2-alpha receptor (Homo sapiens, UniProt P43088); test: Binding affinity to human FP receptor
Sequence of Prostaglandin F2-alpha receptor (P43088 whole entry): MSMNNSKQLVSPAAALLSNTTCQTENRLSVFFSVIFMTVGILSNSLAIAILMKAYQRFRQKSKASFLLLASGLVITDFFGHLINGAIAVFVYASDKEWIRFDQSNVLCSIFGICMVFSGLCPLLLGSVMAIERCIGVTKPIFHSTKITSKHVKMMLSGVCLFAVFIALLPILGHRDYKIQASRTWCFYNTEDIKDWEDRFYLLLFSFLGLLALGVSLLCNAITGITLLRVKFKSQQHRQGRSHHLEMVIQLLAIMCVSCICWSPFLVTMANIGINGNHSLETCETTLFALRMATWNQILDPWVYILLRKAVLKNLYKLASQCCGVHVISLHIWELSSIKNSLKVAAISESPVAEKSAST

Thromboxane A2 receptor = target: T2, Thromboxane A2 receptor (Homo sapiens, UniProt P21731); test: Binding affinity to human TP receptor
T2 sequence (P21731 whole entry): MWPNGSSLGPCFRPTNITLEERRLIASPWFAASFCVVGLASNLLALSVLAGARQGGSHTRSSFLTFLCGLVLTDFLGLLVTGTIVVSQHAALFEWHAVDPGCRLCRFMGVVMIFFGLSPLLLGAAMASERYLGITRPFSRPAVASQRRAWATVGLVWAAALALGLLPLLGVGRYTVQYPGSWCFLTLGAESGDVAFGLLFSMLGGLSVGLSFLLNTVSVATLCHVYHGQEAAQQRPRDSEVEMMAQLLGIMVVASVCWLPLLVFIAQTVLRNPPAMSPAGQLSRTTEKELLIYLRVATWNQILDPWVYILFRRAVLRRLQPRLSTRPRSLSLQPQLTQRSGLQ

IC50 [1] [nM]	SMILES	further results
32	COc1cccc(C(=O)N(CCN2CCC(OCC(=O)O)CC2)c2ccc(C)cc2)c1	–
> 10000	Cc1ccc(N(CCN2CCC(OCC(=O)O)CC2)C(=O)c2ccc(C(F)(F)F)cc2)cc1	–
1500	O=C(O)COC1CCN(CCN(C(=O)c2ccc(Cl)cc2)c2ccc(Cl)cc2)CC1	–
21	Cc1ccc(N(CCN2CCC(OCC(=O)O)CC2)C(=O)c2ccc3c(c2)OCO3)cc1	–
20000	Cc1ccc(N(CCN2CCC(OCC(=O)O)CC2)C(=O)c2cccc(C(F)(F)F)c2)cc1	–
100	Cc1ccc(N(CCN2CCC(OCC(=O)O)CC2)C(=O)c2cccc(Cl)c2)cc1	–
> 3000	COc1ccc(C(=O)N(CCN2CCC(OCC(=O)O)CC2)c2ccc(C)cc2)cc1OC	–
> 10000	Cc1ccc(N(CCN2CCC(OCC(=O)O)CC2)C(=O)c2ccc(-c3ccccc3)cc2)cc1	–
> 10000	O=C(O)COC1CCN(CCN(C(=O)c2cccc(C(F)(F)F)c2)c2ccc(Cl)cc2)CC1	–
340	O=C(O)COC1CCN(CCN(C(=O)c2cccc(F)c2)c2ccc(Cl)cc2)CC1	–
–	Cc1ccc(N(CCN2CCC(OCC(=O)O)CC2)C(=O)c2ccc3c(c2)OCO3)cc1.Cl.O	Cmax [2]: 130 ng/mL; bioavailability [3]: 76%; Ki (Prostacyclin receptor): 400 nM; Ki [4]: > 50000 nM; Ki [5]: > 50000 nM; Ki [6]: > 50000 nM; Ki [7]: > 50000 nM; Ki (Thromboxane A2 receptor): > 50000 nM
970	Cc1ccc(N(CCN2CCC(OCC(=O)O)CC2)C(=O)c2ccc(F)cc2)cc1	–
> 10000	O=C(O)COC1CCN(CCN(C(=O)c2ccc(-c3ccccc3)cc2)c2ccc(Cl)cc2)CC1	–
220	Cc1ccc(N(CCN2CCC(OCC(=O)O)CC2)C(=O)c2ccccc2)cc1	–
440	O=C(O)COC1CCN(CCN(C(=O)c2ccccc2)c2ccc(Cl)cc2)CC1	–
350	O=C(O)COC1CCN(CCN(C(=O)c2cccc(Cl)c2)c2ccc(Cl)cc2)CC1	–
1200	COc1ccc(C(=O)N(CCN2CCC(OCC(=O)O)CC2)c2ccc(C)cc2)cc1	–
> 3000	COc1ccc(OC)c(C(=O)N(CCN2CCC(OCC(=O)O)CC2)c2ccc(C)cc2)c1	–
160	Cc1ccc(N(CCN2CCC(OCC(=O)O)CC2)C(=O)c2cccc(F)c2)cc1	–
74	COc1cccc(C(=O)N(CCN2CCC(OCC(=O)O)CC2)c2ccc(Cl)cc2)c1	–
160	Cc1ccc(N(CCN2CCC(OCC(=O)O)CC2)C(=O)c2cccc(C)c2)cc1	–
1600	COc1cccc(C(=O)N(CCN2CCC(OCC(=O)O)CC2)c2ccc(C)cc2)c1OC	–
3100	COc1ccc(C(=O)N(CCN2CCC(OCC(=O)O)CC2)c2ccc(Cl)cc2)cc1	–
690	Cc1ccc(N(CCN2CCC(OCC(=O)O)CC2)C(=O)c2ccc(Cl)cc2)cc1	–
2000	O=C(O)COC1CCN(CCN(C(=O)c2ccc(F)cc2)c2ccc(Cl)cc2)CC1	–
530	COc1cc(OC)cc(C(=O)N(CCN2CCC(OCC(=O)O)CC2)c2ccc(C)cc2)c1	–
310	Cc1cccc(C(=O)N(CCN2CCC(OCC(=O)O)CC2)c2ccc(Cl)cc2)c1	–
> 10000	O=C(O)COC1CCN(CCN(C(=O)c2ccc(C(F)(F)F)cc2)c2ccc(Cl)cc2)CC1	–
